Measurements published in patent US6992215B2, “Thiol-based NAALADase inhibitors” (Guildford Pharmaceuticals Inc., priority 2001, dated 2006).

Columns and labels:
cortical cell cultures = assay: In Vitro Assay on Ischemia (glutamate toxicity after potassium cyanide / 2-deoxyglucose insult); assay type: cell-based; conditions: concentration required to cause a 50% reduction in glutamate toxicity following an ischemic insult
Protocol: To examine the in vitro effect of the inventive compounds on ischemia, cortical cell cultures were treated with various compounds of this invention during an ischemic insult utilizing potassium cyanide and 2-deoxyglucose, and for one hour thereafter. For a description of the experimental method used, see Vornov et al., J. Neurochem., Vol. 65, No. 4, pp. […] (1995).

STZ-diabetic rats [1] = assay: Reversal of diabetic neuropathy in STZ model, delayed dosing; assay type: in vivo; conditions: for neuropathic hyperalgesia (withdrawal latency difference scores) / motor nerve conduction velocity: daily p.o.; for neuropathic hyperalgesia (withdrawal latency difference scores): treatment started 5 weeks post STZ, within two weeks of treatment, FIG. 31; for motor nerve conduction velocity: within 8 weeks of dosing, persisted through 12 weeks, FIG. 32
Protocol: Rats (200 to 225 g) were injected with STZ (70 mg/kg) into the tail vein. Diabetes (>350 mg/dl) was confirmed in all rats, 4 weeks after STZ administration. Rats were left untreated until 35 to 49 days after STZ. Compound D (1, 3, or 10 mg/kg), Compound E (10 mg/kg), or vehicle were dosed daily p.o. following confirmation of hyperalgesia and/or nerve conduction velocity deficits. In separate experiments, onset of treatment was delayed until 60 to 90 days after STZ administration. Nerve conduction velocity or withdrawal response to thermal stimulation of hind paws was measured at intervals, usually bi-weekly for thermal response and monthly for nerve conduction velocity.
Sensory and motor nerve conduction velocities were evaluated using the method of De Koning and Gispen (Peptides 8: 415–422, 1987). Electrophysiological evaluation was carried out within one hour of dosing. Animals were anesthetized with isoflurane and stimulating needle electrodes were inserted close to the sciatic nerve at the sciatic notch and the tibial nerve near the ankle. Recording electrodes were placed over the foot muscles. Stimuli were applied and responses recorded. Motor and sensory nerve conduction velocities were calculated by measuring the distance between the sciatic notch and ankle sites, and the latency between the M-wave and the H-reflex.
Animals were acclimated to the apparatus for at least 5 min. An infra-red source was placed under below the plantar surface of the rat hind-paw. The intensity of the source was adjusted so that latency for normal rats was about 10 secs. Animals were tested for thermal response latency according to the method of Hargreaves et al (Pain 77–88, 1988). Each animal was tested 8 times (4 each hind limb) and the latency of response recorded automatically to nearest 0.1 sec. An average of the last 4 measurements for each paw was calculated (8 total measurements) and noted for each rat.

[2] = test system: chronic constrictive injury-induced rats; assay: Neuropathic pain in CCI model (sciatic nerve ligation, thermal hyperalgesia); assay type: in vivo
Protocol: Sciatic nerve ligation, consisting of 4 ligatures tied loosely around the sciatic nerve at 1 mm intervals proximal to the nerve trifurcation, was performed on rats. […] The rats were habituated to a Hargreaves apparatus. An infrared heat source was directed onto the dorsal surface of each rat's hindpaws and the time taken for the rat to withdraw its paws was noted. The difference in scores between the latency of the response for the paw on the operated side versus the paw on the unoperated control side was determined.
The rats were treated with either Compound 49 (10, 1 or 0.1 mg/kg) or a vehicle for 15 days after sciatic nerve ligation. Thermal pain responses were measured at days 0, 1, 5, 8, 11 and 15. The differences in scores for the rats treated with a vehicle and the rats treated with Compound 49 are graphically presented in FIGS. 13-15.
The rats were treated with either Compound 5 (50, 30, 10, 3, 1 or 0.3 mg/kg) or a vehicle for 12 (or 15) days after sciatic nerve ligation. Thermal pain responses were measured at days 0, 1, 5, 8 and 12 (and 15). The differences in scores for the rats treated with a vehicle and the rats treated with Compound 5 are graphically presented in FIGS. 17-22.
The rats received either Compound C (50 mg/kg i.p. daily) or a vehicle starting 10 days post surgery. […] Normal (unoperated) rats had approximately equal latencies for both paws. This effect was significant starting at 11 days of drug treatment and persisted through to the end of the study (for 21 days of daily dosing).

STZ-diabetic rats [3] = assay: Diabetic neuropathy in STZ model (motor and sensory nerve conduction velocity); assay type: in vivo
Protocol: Motor and sensory nerve conduction velocity was also measured in STZ-diabetic animals after 4, 8 and 12 weeks of treatment (see De Koning et al., supra, for a description of the experimental method). Briefly, stimulating needle electrodes were inserted close to the sciatic and tibial nerves with recording electrodes being placed subcutaneously over the distal foot muscles, in anesthetized rats.

BB/W diabetic rats = assay: Progression of neuropathic pain and nerve conduction deficits in BB/W model; assay type: in vivo
Text: Male BB/W rats (BRI, Mass) spontaneously develop a cell mediated autoimmune destruction of pancreatic B cells, resulting in onset of insulin-dependent (Type I) diabetes (Guberski 1994). […] This renders them valuable for experimental trials of new compounds for future treatments of this major disorder. In the present study, Compound D and Compound A were examined for their ability to alter the progression of diabetic neuropathy. […] Another group of non-diabetic rats also receiving vehicle were tested. All animals were continuously monitored for body weight, urine volume, blood sugar and glycated haemoglobin. In the first month of the study, all animals were tested for thermal nociception in a Hargreaves apparatus, weekly. After the first month this was done biweekly and then monthly. The testing consists of directing an infrared heat source onto the dorsal surface of the rat hindpaw and noting the time taken for the animal to remove its paw (see Hargreaves et al., supra, for a description of the experimental method). Each animal was tested 8 times and the mean withdrawal latency noted.
Nerve conduction velocity was also measured every two weeks through the first eight weeks of treatment and every month thereafter through to the six months of treatment (see De Koning et al., Peptides, Vol. 8, No. 3, pp. 415–22 (1987) for a description of the experimental method). […] This was apparent starting at 8 weeks of treatment and persisted to a similar degree through to the six month termination point of the study.

[4] = test system: STZ-induced diabetic rats; assay: Neuropathic pain in STZ model (Hargreaves thermal nociception); assay type: in vivo, Sprague-Dawley rats; conditions: 10 mg/kg i.p. daily, treatment started 45 days post-STZ
Protocol: Male Sprague-Dawley rats (200–225 g) were rendered diabetic by intravenous administration of streptozotocin (“STZ”, 70 mg/kg in phosphate buffered saline). Diabetic animals were divided into five groups: one group receiving Compound A (10 mg/kg or 1 mg/kg), Compound D (10 mg/kg or 1 mg/kg) or vehicle. Another group of animals (non-STZ treated) served as non-diabetic controls. Drug/vehicle treatment was started in diabetic animals 45 days post-STZ administration. STZ-induced diabetic rats were tested for sensitivity to a heat source as soon as blood glucose levels rose to 320 mg/dl or above (30 days post STZ). The rats were then acclimated to a Hargreaves apparatus and thermal nociception was monitored using an infrared heat source directed into the dorsal surface of the hindpaw, and the time taken for the animal to remove its paw noted to the nearest 0.1 seconds (see Hargreaves et al., supra, for detailed experimental method). The intensity of the beam source was adjusted such that the mean latency for control animals (non-STZ treated) was approximately 10 seconds. Each animal was tested 8 times and the mean difference score (between mean non-diabetic control latency and mean diabetic latency) are graphically presented in FIGS. 7A and 7B.

## O=C(O)c1cccc(CC(CCCS)C(=O)O)c1 (stereo not drawn) [Compound 5, 3-carboxy-alpha-(3-mercaptopropyl)-benzenepropanoic acid]
Cortical cell cultures
  EC50: 6.5 nM
STZ-diabetic rats [1]
  neuropathic hyperalgesia (withdrawal latency difference scores): reversed towards normal
  motor nerve conduction velocity: reversed the motor nerve conduction velocity towards normal
[2]; 50, 30, 10, 3, 1 or 0.3 mg/kg for 12 (or 15) days after sciatic nerve ligation, FIGS. 17-22
  difference in scores between the operated and unoperated paws: normalized the difference in scores

## CC(C)(C)c1cc(CC(CCCS)C(=O)O)cc(C(=O)O)c1 (stereo not drawn) [Compound 49, 3-carboxy-5-(1,1-dimethylethyl)-alpha-(3-mercaptopropyl)-benzenepropanoic acid]
[2]; 10, 1 or 0.1 mg/kg for 15 days after sciatic nerve ligation, FIGS. 13-15
  difference in scores between the operated and unoperated paws: normalized the difference in scores

## O=C(O)c1cc(CC(CCCS)C(=O)O)ccc1Cl (stereo not drawn) [Compound 32, 3-carboxy-4-chloro-alpha-(3-mercaptopropyl)-benzenepropanoic acid]
Cortical cell cultures
  EC50: 7 nM

## O=C(O)CNC(=O)c1cccc(CC(CCCS)C(=O)O)c1 (stereo not drawn) [Compound 46, 3-[[(carboxymethyl)amino]carbonyl]-alpha-(3-mercaptopropyl)-benzenepropanoic acid]
Cortical cell cultures
  EC50: 544 nM

## O=C(O)c1ccc(Cl)c(CC(CCCS)C(=O)O)c1 (stereo not drawn) [Compound 10, 5-carboxy-2-chloro-alpha-(3-mercaptopropyl)-benzenepropanoic acid]
Cortical cell cultures
  EC50: 7.7 nM

## O=C(O)c1cc(CC(CCCS)C(=O)O)ccc1-c1ccccc1 (centres unmarked) [Compound 58, 4-(2-carboxy-5-mercaptopentyl)-[1,1′-biphenyl]-2-carboxylic acid]
Cortical cell cultures
  EC50: 16 nM

## O=C(O)c1ccc(Cl)c(OC(CCCS)C(=O)O)c1 (centres unmarked) [Compound 33, 3-(1-carboxy-4-mercaptobutoxy)-4-chloro-benzoic acid]
Cortical cell cultures
  EC50: 110 nM

## O=C(O)c1cccc(OC(CCCS)C(=O)O)c1 (centres unmarked) [Compound 14, 3-(1-carboxy-4-mercaptobutoxy)-benzoic acid]
Cortical cell cultures
  EC50: 16 nM

## COc1ccc(C(=O)O)cc1OC(CCCS)C(=O)O (centres unmarked) [Compound 27, 3-(1-carboxy-4-mercaptobutoxy)-4-methoxy-benzoic acid]
Cortical cell cultures
  EC50: 155 nM

## O=C(O)c1ccc(-c2ccccc2)c(CC(CCCS)C(=O)O)c1 (centres unmarked) [Compound 56]
Cortical cell cultures
  EC50: 11 nM

## O=C(O)c1cc(Br)cc(CC(CCCS)C(=O)O)c1 (stereo not drawn) [Compound 45, 3-bromo-5-carboxy-alpha-(3-mercaptopropyl)-benzenepropanoic acid]
Cortical cell cultures
  EC50: 2 nM

## O=C(O)CCC(CCS)C(=O)O (centres unmarked) [Compound D, 2-(2-sulfanylethyl)pentanedioic acid]
STZ-diabetic rats [3]; 10 mg/kg treatment group
  treatment time after which increase of motor and sensory nerve conduction velocities was significant: 12 weeks
STZ-diabetic rats [3]; either dose (10 mg/kg or 1 mg/kg), FIGS. 10A and 10B
  motor and sensory nerve conduction velocities versus diabetic controls: increased both motor and sensory nerve conduction velocities
BB/W diabetic rats; 10 mg/kg daily, from 8 weeks to six months of treatment, FIG. 12
  nerve conduction velocity deficits versus diabetic vehicle controls: significantly less severe nerve conduction deficits
BB/W diabetic rats; 10 mg/kg i.p. daily, starting after 4 weeks and through six months of treatment, FIG. 11
  withdrawal latency versus diabetic vehicle-treated rats: longer withdrawal latencies
STZ-diabetic rats [1]
  neuropathic hyperalgesia (withdrawal latency difference scores): reversed towards normal
  motor nerve conduction velocity: reversed the motor nerve conduction velocity towards normal
STZ-diabetic rats [1]; lower doses 1 and 3 mg/kg, treatment 7 weeks post STZ, even 8 weeks after dosing
  motor nerve conduction: remained unimproved
STZ-diabetic rats [1]; lower doses 1 and 3 mg/kg, treatment 7 weeks post STZ, within 4 weeks of treatment
  sensory nerve conduction: significantly improved towards normal
STZ-diabetic rats [1]; lower doses 1 and 3 mg/kg, treatment initiated 7 weeks post STZ, FIG. 34
  neuropathic pain abnormalities: Significant reduction in pain abnormalities
STZ-diabetic rats [1]; rats left untreated until 60 days after STZ, external CRO, FIGS. 37 and 38
  sensory and motor nerve conduction velocity deficits: Partial reversal of both deficits
[4]
  hyperalgesic response (withdrawal latency difference score): completely reversed

## O=C(O)Cc1ccc(OC(CCCS)C(=O)O)cc1 (centres unmarked) [Compound 21, 4-(1-carboxy-4-mercaptobutoxy)-benzeneacetic acid]
Cortical cell cultures
  EC50: 11.6 nM

## CS(=O)(=O)c1ccc(CC(CCCS)C(=O)O)cc1 (stereo not drawn) [Compound 7, alpha-(3-mercaptopropyl)-4-(methylsulfonyl)-benzenepropanoic acid]
Cortical cell cultures
  EC50: 1060 nM

## O=C(O)c1cc(CC(CCCS)C(=O)O)cc(-c2ccccc2)c1 (centres unmarked) [Compound 55, 5-(2-carboxy-5-mercaptopentyl)-[1,1′-biphenyl]-3-carboxylic acid]
Cortical cell cultures
  EC50: 1 nM

## O=C(O)c1ccc(CC(CCCS)C(=O)O)cc1 (stereo not drawn) [Compound 6, 4-carboxy-alpha-(3-mercaptopropyl)-benzenepropanoic acid]
Cortical cell cultures
  EC50: 17.8 nM

## CC(=O)Nc1ccc(CC(CCCS)C(=O)O)cc1 (stereo not drawn) [Compound 26, 4-(acetylamino)-alpha-(3-mercaptopropyl)-benzenepropanoic acid]
Cortical cell cultures
  EC50: 1800 nM

## O=C(O)C(CCCS)Sc1ccccc1 (centres unmarked) [Compound 40, 5-mercapto-2-(phenylthio)-pentanoic acid]
Cortical cell cultures
  EC50: 452 nM

## O=C(O)c1cc(CC(CCCS)C(=O)O)cc([N+](=O)[O-])c1 (stereo not drawn) [Compound 48, 3-carboxy-alpha-(3-mercaptopropyl)-5-nitro-benzenepropanoic acid]
Cortical cell cultures
  EC50: 2.4 nM
